What was measured:
11b-HSD1 [1] = target: 11b-HSD1 (Homo sapiens, UniProt P28845); assay: Enzymatic assay, 11b-HSD1 reductase activity (conversion of cortisone into cortisol); assay type: biochemical; details: pIC50 scored 1-3, read-out: [C1] HSD1-prot Reduct Score
Experimental: The effects of compounds on 11b-HSD1 dependent conversion of cortisone into cortisol (reductase activity) was studied in a reaction mixture containing 30 mM Tris-HCl buffer pH 7.2, 180 μM NADPH, 1 mM EDTA, 2 μM cortisone, 1 μl drug and/or solvent and 11 μg recombinant protein in a final volume of 100 μl.
(§1) All incubations were performed for 45 min at 37 C in a water bath. The reaction was stopped by adding 100 μl acetonitrile containing 20 μg corticosterone as internal standard. After centrifugation, the product formation was analysed in the supernatant by HPLC on a Hypersyl BDS-C18 column using 0.05 mM ammonium acetate/methanol (50/50) as solvent. In all of the aforementioned assays, the drugs to be tested were taken from a stock solution and tested at a final concentration ranging from […] to 3.10^−9M. From the thus obtained dose response curves, the pIC50 value was calculated and scored as follows; Score 1=pIC50 value<5, Score 2=pIC50 value in the range of 5 to 6, Score 3=pIC50 value>6. (in this table NT stands for Not Tested).

11b-HSD1 [2] = target: T1, 11b-HSD1 (Mus musculus, UniProt P50172); assay: Cellular assay, 11b-HSD1 activity in differentiated 3T3-L1 cells; assay type: cell-based; details: 4 hour pre-incubation; for IC50: pIC50 scored 1-3, read-out: [C2] HSD1 cellular 3T3-L1 Score
T1 construct: endogenous in cells; host or cells: 3T3-L1 (ATCC-CL-173), differentiated into adipocytes
T1 sequence (P50172 whole entry): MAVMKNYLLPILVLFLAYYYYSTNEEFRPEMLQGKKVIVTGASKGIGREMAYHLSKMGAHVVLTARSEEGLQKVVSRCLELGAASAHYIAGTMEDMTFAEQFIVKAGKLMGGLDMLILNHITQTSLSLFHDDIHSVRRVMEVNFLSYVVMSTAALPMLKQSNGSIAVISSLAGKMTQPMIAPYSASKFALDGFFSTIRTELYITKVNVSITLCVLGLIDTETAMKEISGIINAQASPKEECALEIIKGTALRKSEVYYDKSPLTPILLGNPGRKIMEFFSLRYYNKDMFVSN
Experimental: The effects on 11b-HSD1 activity was measured in differentiated 3T3-L1 cells and rat hepatocytes.
Mouse fibroblast 3T3-L1 cells (ATCC-CL-173) were seeded at a density of 16500 cells/ml in 12 well plates and grown for 7 days in DMEM medium (supplemented with 10% heat inactivated foetal calf serum, 2 mM glutamine and 25 mg gentamycin) at 37 C in a humidified 5% CO2 atmosphere. Medium was refreshed twice a week. Fibroblasts were differentiated into adipocytes at 37 C in a 5% CO2 humidified atmosphere in growth medium containing 2 μg/ml insulin, 55 μg/ml IBMX and 39.2 μg/ml dexamethasone.
Following a 4 hour pre-incubation with test compound, 0.5 μCi ^3H-cortisone or dehydrocorticosterone, was added to the cultures. One hour later, the medium was extracted on Extrelut^3-columns with 15 ml diethyl ether and the extract was analysed by HPLC as described above.
(§2) As for the enzymatic assays, the compounds to be tested were taken from a stock solution and tested at a final concentration ranging from […] to 3.10^−9M. From the thus obtained dose response curves, the pIC50 value was calculated and scored as follows; Score 1=pIC50 value<5, Score 2=pIC50 value in the range of 5 to 6, Score 3=pIC50 value>6. (in this table NT stands for Not Tested).

11b-HSD2 [3] = target: T2, 11b-HSD2 (Homo sapiens, UniProt P80365); assay: Cellular assay, 11b-HSD2 activity in HepG2 cells; assay type: cell-based; parameters: endogenous in cells; host or cells: HepG2 (ATCC HB-8065); details: 4 hour pre-incubation; for IC50: pIC50 scored 1-3, read-out: [C2] HSD2 cellular HepG2 Score
T2 sequence (P80365 1-405): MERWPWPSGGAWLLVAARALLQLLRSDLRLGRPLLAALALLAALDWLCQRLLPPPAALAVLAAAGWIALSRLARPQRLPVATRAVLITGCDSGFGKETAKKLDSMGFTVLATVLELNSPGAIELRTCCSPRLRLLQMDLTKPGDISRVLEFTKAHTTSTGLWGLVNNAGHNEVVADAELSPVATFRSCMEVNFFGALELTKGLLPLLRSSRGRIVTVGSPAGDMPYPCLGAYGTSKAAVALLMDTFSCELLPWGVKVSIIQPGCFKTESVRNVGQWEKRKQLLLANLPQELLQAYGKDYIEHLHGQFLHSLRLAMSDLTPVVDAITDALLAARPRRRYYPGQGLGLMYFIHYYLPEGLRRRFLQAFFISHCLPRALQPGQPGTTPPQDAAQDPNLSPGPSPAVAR
Experimental: The effects on 11b-HSD2 activity was studied in HepG2 and LCC-PK1-cells HepG2-cells (ATCC HB-8065) were seeded in 12 well plates at a density of 100,000 cells/ml and grown at 37 C in a humidified 5% CO2 atmosphere in MEM-Rega-3 medium supplemented with 10% heat inactivated foetal calf serum, 2 mM L-glutamine and sodium bicarbonate). Medium was refreshed twice a week. Pig kidney cells (LCC-PK1, ATCC CRL-1392) were seeded at a density of 150,000 cells/ml in 12 well plates and grown at 37 C in a humidified 5% CO2 atmosphere in Medium 199 supplemented with Earls modified salt solution, 100 U/ml penicillin, 100 μg/ml streptomycin and 10% foetal calf serum. Medium was refreshed twice a week. Twenty four hours prior to the onset of the experiment, medium was changed by medium containing 10% charcoal stripped foetal calf serum.
Following a 4 hour pre-incubation with test compound, 0.5 μCi ^3H-cortisol or corticosterone, was added to the cultures. One hour later, the medium was extracted on Extrelut^3-columns with 15 ml diethyl ether and the extract was analysed by HPLC as described above.
as §2

11b-HSD2 [4] = target: T2, 11b-HSD2; assay: Enzymatic assay, 11b-HSD2 dependent dehydrogenase activity; assay type: biochemical; details: 11b-HSD2 dehydrogenase activity, pIC50 scored 1-3, read-out: [C1] HSD2 prot Dehydro Score
Experimental: The effects on the 11b-HSD2 dependent dehydrogenase activity was studied in a reaction mixture containing 0.1M sodium phosphate buffer pH 7.5, 300 μM NAD, 100 nM cortisol (of which 2 nM is 3H-radio labelled), 1 μl drug and/or solvent and 2.5 μg recombinant protein in a final volume of 100 μl.
as §1

11b-HSD1 (Homo sapiens, UniProt P28845), sequence (P28845 whole entry): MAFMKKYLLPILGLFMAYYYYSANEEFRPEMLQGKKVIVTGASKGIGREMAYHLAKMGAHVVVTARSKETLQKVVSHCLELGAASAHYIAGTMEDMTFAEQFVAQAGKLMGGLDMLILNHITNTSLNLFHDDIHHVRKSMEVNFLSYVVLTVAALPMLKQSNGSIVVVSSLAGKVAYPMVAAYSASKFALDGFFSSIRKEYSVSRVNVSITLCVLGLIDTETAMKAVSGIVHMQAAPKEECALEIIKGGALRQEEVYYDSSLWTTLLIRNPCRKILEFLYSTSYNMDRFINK

| Compound | IC50 (11b-HSD1 [1]) [µM] | [C2] HSD1 cellular 3T3-L1 Score (11b-HSD1 [2]; pIC50 scored 1-3) | [C2] HSD2 cellular HepG2 Score (11b-HSD2 [3]; pIC50 scored 1-3) | IC50 (11b-HSD2 [4]) [µM] | IC50 (11b-HSD1 [2]) [µM] | IC50 (11b-HSD2 [3]) [µM] |
| --- | --- | --- | --- | --- | --- | --- |
| COc1ccc(OC)c(C(C)(C)C(=O)NC2C3CC4CC(C3)CC2C4)c1 (stereo not shown) [Compound 154] | > 10 | 3 (Score 3=pIC50 value>6) | 1 (Score 1=pIC50 value<5) |  |  |  |
| O=C(NC12CC3CC(CC(C3)C1)C2)C1(c2ccccc2)CCC1 [Compound 16] |  |  |  | > 10 | 1 to 10 | > 10 |
| O=C(NC1CC2CCC1C2)C1(c2ccccc2)CCCC1 (stereo not shown) [Compound 22] |  |  |  | > 10 | 1 to 10 | > 10 |
| O=C(NC1CC2CCC1C2)C1(c2ccccc2)CC1 (stereo not shown) [Compound 64] |  |  |  | > 10 | 1 to 10 | > 10 |
| O=C(NCC12CC3CC(CC(C3)C1)C2)C1(c2ccccc2)CC1 [Compound 31] |  |  |  | > 10 | < 1 | > 10 |
| COC12CC3CC(C1)C(NC(=O)C(C)(C)c1ccccc1)C(C3)C2 (stereo not shown) [Compound 109] | < 1 |  |  |  | < 1 | > 10 |
| CC(C)(C(=O)NC1C2CC3CC(C2)CC1C3)c1cccc(OCCN2CCCC2)c1 (stereo not shown) [Compound 71] | < 1 |  |  |  | < 1 | > 10 |
| Cc1cc(C)cc(C(C)(C)C(=O)NC2C3CC4CC(C3)CC2C4)c1 (stereo not shown) [Compound 3] | < 1 |  |  |  | < 1 | > 10 |
| O=C(NC1C2CC3CC(C2)CC1C3)[C@H]1Cc2ccccc2CN1 (stereo partly shown) [Compound 255] |  |  |  | > 10 | < 1 | > 10 |
| CC(C)(C(=O)NC1C2CC3CC(C2)CC1C3)c1cc(F)cc(F)c1 (stereo not shown) [Compound 95] | > 10 |  |  |  | < 1 | > 10 |
| CCC(C(=O)NC1C2CC3CC(C2)CC1C3)c1ccccc1 (stereo not shown) [Compound 29] |  |  |  |  | < 1 | > 10 |
| CC1CCCCC1NC(=O)C1(c2ccccc2)CC1 (stereo not shown) [Compound 19] |  |  |  | > 10 | 1 to 10 | > 10 |
| CN(C)CCOc1cccc(C(C)(C)C(=O)NC2C3CC4CC(C3)CC2C4)c1 (stereo not shown) [Compound 7] | > 10 |  |  |  | < 1 | > 10 |
| CN(Cc1ccccc1)c1ccc(C(C)(C)C(=O)NC2C3CC4CC(C3)CC2C4)cc1 (stereo not shown) [Compound 81] | < 1 |  |  |  | 1 to 10 | > 10 |
| CC(C)(C(=O)NC1C2CC3CC(C2)CC1C3)c1ccc(Cl)cc1Cl (stereo not shown) [Compound 106] | > 10 |  |  |  | < 1 | > 10 |
| CC(C)(C(=O)NC1C2CC3CC(C2)CC1C3)c1ccc(Cl)cc1 (stereo not shown) [Compound 1] |  |  |  | > 10 | < 1 | > 10 |
| O=C(NC1C2CC3CC(C2)CC1C3)C1CCc2ccccc2N1 (stereo not shown) [Compound 253] |  |  |  | > 10 | < 1 | > 10 |
| CC(C(=O)NC1C2CC3CC(C2)CC1C3)c1ccccc1 (stereo not shown) [Compound 28] |  |  |  |  | < 1 | > 10 |
| CC1(C)C2CCC1(C)C(NC(=O)C1(c3ccccc3)CC1)C2 (stereo not shown) [Compound 55] |  |  |  | > 10 | < 1 | > 10 |

From patent publication US7968601B2, “Adamantyl acetamides as 11-β hydroxysteroid dehydrogenase inhibitors” (Janssen Pharmaceutica N.V., priority 2002, dated 2011)
